Assay results published in patent publication US4103008A, “7[2(2,3 Dioxopiperazin-1-yl-carbonylamino)substituted 2 phenylacetamido]-3-2'-thiadiazolyl cephalosporanic acid derivatives” (priority 1976, dated 1978).
Values after ≈ are worked out from the molar mass of the structure shown. Like-named read-outs stand apart in the source and are kept apart here.

Columns and labels:
Proteus morganii C73-23 = assay: In vitro antibacterial activity (MIC); type: cell-based; conditions: Morganella morganii, C7323
[1] = system: Pseudomonas strain C73-63; assay: In vitro antibacterial activity (MIC); type: cell-based; conditions: C7363
Serratia strain No. 2 = assay: In vitro antibacterial activity (MIC); type: cell-based
[2] = system: Pseudomonas aerugenosa E 2 strain; assay: ED50 in Pseudomonas infection in mice; type: in vivo; conditions: ICR-JCL mouse, male, 20g; P. aerugenosa E 2 3.6 × 10^4 intraperitoneal; compound intramuscular after 2 hrs.; ED50 after 7 days; sodium salts
From the text: (§1) Given below are the test results of in vitro antibacterial activity studies, serum concentrations and accumulative urinary excretions in rabbits and the protecting effects in mice, of some representative compounds of the invention.
(§2) The compounds used in the tests are shown in the following Table 1, but all of these compounds are in the form of the sodium salt.
Pseudomonas aerugenosa E 2 strain (3.6 × 10^4) was intraperitonealy injected to each group of 10 of ICR-JCL mouse (male, 20g). After 2 hrs., each of the test compounds was intramuscularly administered to the infected mice and the ED50 values were measured after 7 days.

Escherichia coli C 73-1 = assay: In vitro antibacterial activity (MIC); type: cell-based; conditions: C731
[3] = system: Pseudomonas aeruginosa C73-2; assay: In vitro antibacterial activity (MIC); type: cell-based; conditions: C732
[4] = Serum concentration and accumulative urinary excretion in rabbit; conditions: in vivo, im; for concentration at 0.5 h: after 30 mins.
Protocol: as §1, §2
Each of the test compounds (20 mg/kg) was intramuscularly administered to one group of 3 rabbits, and the amounts of antibiotics were measured by a conventional method, using Sarcina lutea.

Serratia strain No. 1 = assay: In vitro antibacterial activity (MIC); type: cell-based
[5] = system: Vibrio parahaemolyticus K - 3; assay: In vitro antibacterial activity (MIC); type: cell-based; conditions: K3
[6] = system: Shigella dysenteriae shigae; assay: microbe, parasite or virus in culture; type: cell-based
[7] = system: Salmonella enteritidis No. 11; assay: In vitro antibacterial activity (MIC); type: cell-based; conditions: Salmonella enterica
[8] = system: Streptococcus faecalis ATCC 8043; assay: In vitro antibacterial activity (MIC); type: cell-based; conditions: Enterococcus faecalis, ATCC8043
[9] = system: Staphylococcus aureus FDA 209NIH, P-J C-1; assay: In vitro antibacterial activity (MIC); type: cell-based
Klebsilla pneumoniae = assay: In vitro antibacterial activity (MIC); type: cell-based
[10] = system: Bacillus substilis ATCC 6633; assay: In vitro antibacterial activity (MIC); type: cell-based; conditions: ATCC6633
[11] = system: Salmonella strain C 73-30; assay: In vitro antibacterial activity (MIC); type: cell-based; conditions: C7330
From the text: as §1, §2

Salmonella strain C73-1 = assay: In vitro antibacterial activity (MIC); type: cell-based; conditions: C731
From the text: as §1, §2

[12] = system: Pseudomonas strain C73-83; assay: In vitro antibacterial activity (MIC); type: cell-based; conditions: C7383
From the text: as §1, §2

[13] = system: Vibrio parahaemolyticus K - 5; assay: In vitro antibacterial activity (MIC); type: cell-based; conditions: K5
Escherichia coli C 73-4 = assay: In vitro antibacterial activity (MIC); type: cell-based; conditions: C734
Proteus morganii kono = assay: In vitro antibacterial activity (MIC); type: cell-based; conditions: Morganella morganii
[14] = system: Enterobacter strain C73-17; assay: In vitro antibacterial activity (MIC); type: cell-based; conditions: C7317
[15] = 20 mg/kg intramuscular, sodium salts, Sarcina lutea assay
[16] = Proteus morganii C73-23, in vitro, sodium salts, read-out: MIC
[17] = Pseudomonas strain C73-63, in vitro, sodium salts, read-out: MIC
[18] = Serratia strain No. 2, in vitro, sodium salts, read-out: MIC
[19] = Escherichia coli C 73-1, in vitro, sodium salts, read-out: MIC
[20] = Pseudomonas aeruginosa C73-2, in vitro, sodium salts, read-out: MIC
[21] = Serratia strain No. 1, in vitro, sodium salts, read-out: MIC
[22] = Vibrio parahaemolyticus K - 3, in vitro, sodium salts, read-out: MIC
[23] = Salmonella enteritidis No. 11, in vitro, sodium salts, read-out: MIC
[24] = Streptococcus faecalis ATCC 8043, in vitro, sodium salts, read-out: MIC
[25] = Staphylococcus aureus FDA 209NIH, P-J C-1, in vitro, sodium salts, read-out: MIC
[26] = Klebsilla pneumoniae, in vitro, sodium salts, read-out: MIC
[27] = Bacillus substilis ATCC 6633, in vitro, sodium salts, read-out: MIC
[28] = Salmonella strain C 73-30, in vitro, sodium salts, read-out: MIC
[29] = Salmonella strain C73-1, in vitro, sodium salts, read-out: MIC
[30] = Pseudomonas strain C73-83, in vitro, sodium salts, read-out: MIC
[31] = Vibrio parahaemolyticus K - 5, in vitro, sodium salts, read-out: MIC
[32] = Escherichia coli C 73-4, in vitro, sodium salts, read-out: MIC
[33] = Proteus morganii kono, in vitro, sodium salts, read-out: MIC
[34] = Enterobacter strain C73-17, in vitro, sodium salts, read-out: MIC
[35] = Pseudomonas aeruginosa C-73-2, read-out: Mic value against Pseudomonas aeruginosa C-73-2

Structure (SMILES) | MIC (Serratia strain No. 2; Serratia, NO.2) [µg/mL] | ED50 in Pseudomonas infection in mice [2] [mg/mouse] | MIC (Escherichia coli C 73-1; Escherichia coli) [µg/mL] | MIC (Serratia strain No. 1; Serratia, NO.1) [µg/mL] | MIC [6] [µg/mL] | MIC (Klebsilla pneumoniae) [µg/mL] | MIC (Escherichia coli C 73-4; Escherichia coli) [µg/mL] | MIC (Proteus morganii C73-23; [16]) [µg/mL] | MIC [1, 17] [µg/mL] | MIC [3, 20] [µg/mL] | MIC [5, 22] [µg/mL] | MIC [7, 23] [µg/mL] | MIC [8, 24] [µg/mL] | MIC [9, 25] [µg/mL] | MIC [10, 27] [µg/mL] | MIC [11, 28] [µg/mL] | MIC (Salmonella strain C73-1; [29]) [µg/mL] | MIC [12, 30] [µg/mL] | MIC [13, 31] [µg/mL] | MIC (Proteus morganii kono; [33]) [µg/mL] | also measured
CCN1CCN(C(=O)N[C@@H](C(=O)NC2C(=O)N3C(C(=O)[O-])=C(CSc4nncs4)CS[C@H]23)c2ccc(O)cc2)C(=O)C1=O.[Na+] (single isomer, unassigned) | 3.13 | 3.0 | 1.56 | 3.13 | < 0.05 | 0.1 | 0.39 |  |  |  |  |  |  |  |  |  |  |  |  |  | MIC (Proteus morganii C73-23): 6.25 µg/mL; MIC ([1]; Pseudomonas): 1.56 µg/mL; MIC ([3]; Pseudomonas aeruginosa): 6.25 µg/mL; concentration at 0.5 h [4, 15]: 52800 ng/mL; dose excreted at 6 h ([4]; 20 mg/kg intramuscular, after 6 hrs., sodium salts, Sarcina lutea assay, read-out: ACCUMULATIVE URINARY EXCRETION): 33.4%; MIC ([5]; Vibrio parahaemolyticus): 6.25 µg/mL; MIC ([7]; ENTERITIDIS): < 0.05 µg/mL; MIC [8]: 0.78 µg/mL; MIC ([9]; Staphylococcus aureus): 0.39 µg/mL; MIC ([10]; Bacillus): 0.78 µg/mL; MIC ([11]; Salmonella): 0.39 µg/mL; MIC (Salmonella strain C73-1; Salmonella): 0.39 µg/mL; MIC ([12]; Pseudomonas): 25 µg/mL; MIC ([13]; Vibrio parahaemolyticus): 6.25 µg/mL; MIC (Proteus morganii kono): 1.56 µg/mL; MIC ([14]; Enterobacter): 25 µg/mL
CCN1CCN(C(=O)N[C@@H](C(=O)NC2C(=O)N3C(C(=O)O)=C(CSc4nncs4)CS[C@H]23)c2ccc(O)c(Cl)c2)C(=O)C1=O (single isomer, unassigned) [II, 7-[D(-)-α-(4-ethyl-2,3-dioxopiperazin-1-yl-carbonylamino)-m-chloro-p-hydroxyphenylacetamido]-3-(1,3,4-thiadiazol-2-yl-thiomethyl)-3-cephem-4-carboxylic acid] |  | 2.2 |  |  | < 0.05 |  |  | 6.25 | 1.56 | 6.25 | 12.5 | < 0.05 | 1.56 | 0.2 | 0.39 | 1.56 | 0.78 | 12.5 | 12.5 | 3.13 | MIC (Serratia strain No. 2; [18]): 6.25 µg/mL; MIC (Escherichia coli C 73-1; [19]): 1.56 µg/mL; dose excreted at 6 h ([4]; 20 mg/kg): 24%; concentration at 0.5 h [4, 15]: 28800 ng/mL; MIC (Serratia strain No. 1; [21]): 3.13 µg/mL; MIC (Klebsilla pneumoniae; [26]): 0.78 µg/mL; MIC (Escherichia coli C 73-4; [32]): 1.56 µg/mL; MIC [14, 34]: 12.5 µg/mL
CCOC(=O)Oc1ccc([C@@H](NC(=O)N2CCN(CC)C(=O)C2=O)C(=O)NC2C(=O)N3C(C(=O)O)=C(CSc4nncs4)CS[C@H]23)cc1 (single isomer, unassigned) [V, 7-[D(-)-α-(4-ethyl-2,3-dioxopiperazin-1-yl-carbonylamino)-p-ethoxycarbonyloxyphenylacetamido]-3-(1,3,4-thiadiazol-2-yl-thiomethyl)-3-cephem-4-carboxylic acid] |  | 1.0 |  |  | 0.78 (≈ 1.08 µM) |  |  | 12.5 | 6.25 | 6.25 | 6.25 | 0.2 | 12.5 | 0.39 | 0.78 | 1.56 | 1.56 | 25 | 6.25 | 3.13 | MIC (Serratia strain No. 2; [18]): 3.13 µg/mL; MIC (Escherichia coli C 73-1; [19]): 1.56 µg/mL; dose excreted at 6 h ([4]; 20 mg/kg): 24.1%; concentration at 0.5 h [4, 15]: 43000 ng/mL; MIC (Serratia strain No. 1; [21]): 3.13 µg/mL; MIC (Klebsilla pneumoniae; [26]): 0.39 µg/mL; MIC (Escherichia coli C 73-4; [32]): 3.13 µg/mL; MIC [14, 34]: 3.13 µg/mL
CCN1CCN(C(=O)N[C@@H](C(=O)NC2C(=O)N3C(C(=O)O)=C(CSc4nnc(C)s4)CS[C@H]23)c2ccc(O)cc2)C(=O)C1=O (single isomer, unassigned) [Example 8, 7-[D(-)-α-(4-ethyl-2,3-dioxopiperazin-1-yl-carbonylamino)-p-hydroxyphenylacetamido]-3-(5-methyl-1,3,4-thiadiazol-2-yl-thiomethyl)-3-cephem-4-carboxylic acid] |  |  |  |  |  |  |  |  |  |  |  |  |  |  |  |  |  |  |  |  | MIC [3, 35]: 25 µg/mL (≈ 37.8 µM)
CCN1CCN(C(=O)N[C@@H](C(=O)NC2C(=O)N3C(C(=O)O)=C(CSc4nnc(C)s4)CSC23)c2ccc(O)c(Cl)c2)C(=O)C1=O (single isomer, unassigned) [Example 7] |  |  |  |  |  |  |  |  |  |  |  |  |  |  |  |  |  |  |  |  | MIC [3, 35]: 12.5 µg/mL (≈ 18 µM)
CC1(C)S[C@@H]2[C@H](NC(=O)C(C(=O)O)c3ccccc3)C(=O)N2[C@H]1C(=O)O (some centres unmarked) [CB-PC, sodium carbenicillin, reference compound] | 3.13 | 8.1 |  | 3.13 | 0.78 | 6.25 | 6.25 | 1.56 |  | 25 | > 100 | 0.39 |  | 0.2 | < 0.05 | 6.25 | 6.25 | > 100 | > 100 | 0.39 | MIC ([1]; Pseudomonas): 12.5 µg/mL; MIC (Escherichia coli C 73-1; [19]): > 100 µg/mL; MIC [8]: 6.25 µg/mL; MIC [14, 34]: 25 µg/mL
CCN1CCN(C(=O)N[C@@H](C(=O)N[C@@H]2C(=O)N3[C@@H]2SC(C)(C)[C@@H]3C(=O)O)c2ccccc2)C(=O)C1=O [C, sodium 6-[D(-)-α-(4-ethyl-2,3-dioxopiperazin-1-yl-carbonylamino)phenylacetamido]penicillanate, reference compound] | 3.13 |  | 3.13 | 3.13 | 0.2 | 3.13 | 6.25 |  |  |  | 25 | < 0.05 | 12.5 | 0.78 | 0.39 | 6.25 | 6.25 | 50 | 12.5 | 0.78 | MIC (Proteus morganii C73-23): 3.13 µg/mL; MIC ([1]; Pseudomonas): 3.13 µg/mL; MIC ([3]; Pseudomonas aeruginosa): 6.25 µg/mL; MIC ([14]; Enterobacter): 6.25 µg/mL
Cc1nnc(SCC2=C(C(=O)O)N3C(=O)[C@@H](NC(=O)Cn4cnnn4)[C@H]3SC2)s1 [CEZ, sodium cefazolin, reference compound] |  |  | 3.13 |  | 0.78 |  |  | > 100 | > 100 | > 100 |  | 0.78 | 2.5 | < 0.05 | < 0.05 | 0.78 | 0.78 | > 100 | 12.5 | > 100 | MIC (Serratia strain No. 2; [18]): > 100 µg/mL; MIC (Serratia strain No. 1; [21]): > 100 µg/mL; MIC ([5]; Vibrio parahaemolyticus): 1.56 µg/mL; MIC (Klebsilla pneumoniae; [26]): 0.78 µg/mL; MIC (Escherichia coli C 73-4; [32]): 0.78 µg/mL; MIC [14, 34]: 25 µg/mL
CC1=C(C(=O)O)N2C(=O)[C@@H](NC(=O)[C@H](N)c3ccccc3)[C@H]2SC1 [CEX, sodium cephalexin, reference compound] | > 100 |  | 25 | > 100 | 1.56 | 3.13 | 6.25 |  | > 100 |  |  |  |  |  |  | 3.13 | 3.13 | > 100 |  |  | MIC (Proteus morganii C73-23): > 100 µg/mL; MIC ([3]; Pseudomonas aeruginosa): > 100 µg/mL; MIC ([5]; Vibrio parahaemolyticus): 6.25 µg/mL; MIC ([7]; ENTERITIDIS): 3.13 µg/mL; MIC [8]: 50 µg/mL; MIC ([9]; Staphylococcus aureus): 0.78 µg/mL; MIC ([10]; Bacillus): 0.39 µg/mL; MIC ([13]; Vibrio parahaemolyticus): 50 µg/mL; MIC (Proteus morganii kono): > 100 µg/mL; MIC ([14]; Enterobacter): 100 µg/mL
